Experiments:
[1] = system: A375 melanoma subcutaneous tumor xenografts; test: A375 melanoma subcutaneous tumor xenograft in nude mice; type: in vivo; conditions: 30 mg/kg bid ip 9 days, day 12
Experimental: All animal studies were conducted under an approved Institutional Animal Care and Use Committee protocol. Tumor cells were suspended to 50 million cells/ml and 0.2 ml of the cell suspension was injected subcutaneously into a flank of 6-7 weeks old female nude mice (Charles River, Wilmington, Mass.). Mice with tumors larger than 200 mm^3 after one week were administered vehicle or compound by intraperitoneal injection at the indicated doses in 0.2 ml of vehicle containing 0.5% methylcellulose and 0.4% polysorbate 80 (Tween 80).

CAMKII = CAMKII kinase ELISA; type: biochemical
Experimental: Assay Dilution Buffer (ADB): 20 mM MOPS, pH 7.2, 25 mM β-glycerol phosphate, 5 mM EGTA, 1 mM sodium orthovanadate, 1 mM dithiothreitol. 2. […] 3. […] 4. […] 5. […] 3. […] 4. […] 5. […] 6. […] 7.

[2] = system: Capan pancreatic tumor cells; test: Proliferation assay, CellTiter-Glo; type: cell-based; conditions: 96 h, Cell-glo, day 4
Experimental: (§1) For the experiments described in Table 3, 1000 cells were plated in each well of a 96 well cell culture dish on day 0 in the standard growth medium for that particular cell line. Compound was added on day 1. Relative cell number was determined on day 4.
(§2) The CellTiter-Glo luminescent cell viability assay (Promega #G7573) was used where cells were lysed with the CellTiter Glo reagent, agitated briefly and allowed to sit at room temperature for 30 minutes prior to analyzing on a Wallac plate reader equipped for luminescence readings.

[3] = system: LnCap prostate tumor cells; test: Proliferation assay, CellTiter-Glo; type: cell-based; conditions: Homo sapiens, 96 h, Cell-glo, day 4
Experimental: as §1, §2

[4] = system: HN5 head and neck tumor cells; test: Proliferation assay, CellTiter-Glo; type: cell-based; conditions: 96 h, Cell-glo, day 4
Experimental: as §1, §2

[5] = system: BxPC3 pancreatic tumor cells; test: Proliferation assay, CellTiter-Glo; type: cell-based; conditions: Homo sapiens, BXPC-3, 96 h, Cell-glo, day 4
Experimental: as §1, §2

[6] = system: DU145 prostate tumor cells; test: Proliferation assay, CellTiter-Glo; type: cell-based; conditions: Homo sapiens, DU-145, 96 h, Cell-glo, day 4
Experimental: as §1, §2

A375 melanoma cells [7] = test: Proliferation assay, CellTiter-Glo; type: cell-based; conditions: Homo sapiens, A-375, 96 h, Cell-glo, day 4
Experimental: as §1, §2

[8] = system: MiaPaca pancreatic tumor cells; test: Proliferation assay, CellTiter-Glo; type: cell-based; conditions: Homo sapiens, MIA PaCa-2, 96 h, Cell-glo, day 4
Experimental: as §1, §2

[9] = system: HN5 head and neck tumor line; test: Phosphorylation of downstream proteins in EGF-stimulated HN5 cells; type: cell-based; conditions: serum-starved HN5 cells, compound 4 hours, then EGF 50 ng/ml ten minutes
Experimental: FIG. 1. […] Serum-starved HN5 cells were treated with the compound for 4 hours, after which EGF was added to 50 ng/ml for ten minutes. Lysates were analyzed for Stat3 Y705, c-Cbl Y731 and Y774 and caveolin Y14 phosphorylation.

[10] = system: Molt-4 T-cell leukemia cells; test: Proliferation assay, MTS; type: cell-based; conditions: Homo sapiens, MOLT-4, 96 h, day 4
Experimental: as §1
(§3) Some assays were monitored with the aid of the CellTiter 96 assay (Promega #G3580). With this assay, on day 4, detection reagent was added to the 96 well plate and absorbance at 490 nm was measured.

[11] = system: HSB-2 T-cell leukemia cells; test: Proliferation assay, MTS; type: cell-based; conditions: HSB2, 96 h, day 4
Experimental: as §1, §3

PKA = molecular target: T1, PKA (Bos taurus, UniProt P00517); test: PKA Scintiplate kinase assay; type: biochemical
T1 construct: purchased Upstate 14-114
Excerpt: PKA, PKC, S6 kinase, CAMKII and p38 kinase assays.

HS-294-T melanoma cells = test: Proliferation assay, SRB; type: cell-based; conditions: Homo sapiens, 96 h, day 4
Experimental: as §1
(§4) The sulforhodamine B (SRB) assay was used for certain melanoma lines. In this assay, the serum concentration in the growth medium was 5% and culture medium volume was 0.2 ml. On day 4, 0.05 ml of 50% trichloroacetic acid was added to the medium and the plate was allowed to sit at room temperature for 1 hour. The medium was decanted and the plate was washed 3 times with water. The washed plates were dried, and then 0.08 ml of SRB reagent (SRB was obtained from Sigma; 0.4% SRB in 1% acetic acid) was added. After 10 minutes at room temperature, the plates were washed with 1% acetic acid until no free red color remained in solution. The bound SRB reagent was solubilized with 0.15 ml 10 mM Tris (no acid added). After agitating for 5 minutes on a shaker, the absorbance was read at 540 nm.

A375 melanoma cells [12] = test: Proliferation assay, SRB; type: cell-based; conditions: Homo sapiens, A-375, 96 h, day 4
Experimental: as §1, §4

RPMI-7951 melanoma cells = test: Proliferation assay, SRB; type: cell-based; conditions: Homo sapiens, RPMI-7951, 96 h, day 4
Experimental: as §1, §4

With COc1cc(Nc2c(C#N)cnc3cc(OCCCN4CCN(C)CC4)c(OC)cc23)c(Cl)cc1Cl [4-(2,4-dichloro-5-methoxy-phenylamino)-6-methoxy-7-[3-(4-methyl-piperazin-1-yl)-propoxy]-quinoline-3-carbonitrile] the T/C [1] was 39%, day 12, the IC50 (CAMKII) was 6250 nM and the IC50 [2] was 5900 nM. It also gave an IC50 [3] of 3500 nM, an IC50 [4] of 300 nM and an IC50 [5] of 3900 nM. It also gave an IC50 [6] of 1600 nM, an IC50 (A375 melanoma cells [7]) of 1200 nM and an IC50 [8] of 1300 nM. For the same molecule, the “phosphorylation of Y705 of Stat3” value [9] was “reduced”, the “phosphorylation of c-Cbl Y731” value [9] was “reduced” and the “phosphorylation of caveolin Y14” value [9] was “reduced”. For the same molecule, the IC50 [10] was 8200 nM, the IC50 [11] was 14 nM and the IC50 (PKA) was 5030 nM. It also gave an IC50 (HS-294-T melanoma cells) of 600 nM, an IC50 (A375 melanoma cells [12]) of 900 nM and an IC50 (RPMI-7951 melanoma cells) of 1200 nM.

— patent US20070010527A1, “4-Anilino-3-quinolinecarbonitriles for the treatment of cancer” (priority 2005, published 2007)
